# Data: patent US8173771B2, “Humanin receptor or humanin-like polypeptide receptor” (Keio Univeristy, priority 2005, dated 2012)
# Peptide text beside a SMILES is read from it.
# Target: T1, HN receptor (HNR; CNTF-R/WSX-1/gp130) on F11 cells (Mus musculus, UniProt O70394+O88507)
# T1 construct: endogenous in cells; host or cells: F11 neurohybrid cells
# T1 sequence (O70394 25-623): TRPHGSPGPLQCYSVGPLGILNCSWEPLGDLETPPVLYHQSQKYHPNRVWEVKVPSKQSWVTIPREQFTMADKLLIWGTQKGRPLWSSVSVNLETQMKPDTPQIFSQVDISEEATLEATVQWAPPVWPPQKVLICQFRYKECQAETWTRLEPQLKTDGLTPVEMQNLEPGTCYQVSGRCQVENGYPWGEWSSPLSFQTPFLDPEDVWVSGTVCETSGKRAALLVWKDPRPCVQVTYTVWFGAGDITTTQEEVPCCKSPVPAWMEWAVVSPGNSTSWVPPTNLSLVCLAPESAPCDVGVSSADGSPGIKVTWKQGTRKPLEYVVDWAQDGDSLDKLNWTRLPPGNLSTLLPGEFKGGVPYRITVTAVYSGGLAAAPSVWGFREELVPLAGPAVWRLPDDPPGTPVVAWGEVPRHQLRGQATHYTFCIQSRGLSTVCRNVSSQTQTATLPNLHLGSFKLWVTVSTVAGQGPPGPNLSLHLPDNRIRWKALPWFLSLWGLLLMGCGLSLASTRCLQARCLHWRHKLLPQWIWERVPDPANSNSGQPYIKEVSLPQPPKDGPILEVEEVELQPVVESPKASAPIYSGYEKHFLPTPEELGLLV
# T1 sequence (O88507 23-342): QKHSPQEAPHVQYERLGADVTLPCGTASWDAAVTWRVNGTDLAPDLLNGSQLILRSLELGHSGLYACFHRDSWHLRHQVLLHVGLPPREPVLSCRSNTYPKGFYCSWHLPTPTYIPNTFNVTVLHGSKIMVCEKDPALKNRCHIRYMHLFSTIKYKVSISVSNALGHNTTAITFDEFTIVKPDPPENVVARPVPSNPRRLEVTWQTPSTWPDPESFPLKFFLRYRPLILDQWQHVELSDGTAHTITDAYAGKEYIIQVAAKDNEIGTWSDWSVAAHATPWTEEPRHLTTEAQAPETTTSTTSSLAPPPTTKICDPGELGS
# T1 sequence (Q00560 23-917 partner): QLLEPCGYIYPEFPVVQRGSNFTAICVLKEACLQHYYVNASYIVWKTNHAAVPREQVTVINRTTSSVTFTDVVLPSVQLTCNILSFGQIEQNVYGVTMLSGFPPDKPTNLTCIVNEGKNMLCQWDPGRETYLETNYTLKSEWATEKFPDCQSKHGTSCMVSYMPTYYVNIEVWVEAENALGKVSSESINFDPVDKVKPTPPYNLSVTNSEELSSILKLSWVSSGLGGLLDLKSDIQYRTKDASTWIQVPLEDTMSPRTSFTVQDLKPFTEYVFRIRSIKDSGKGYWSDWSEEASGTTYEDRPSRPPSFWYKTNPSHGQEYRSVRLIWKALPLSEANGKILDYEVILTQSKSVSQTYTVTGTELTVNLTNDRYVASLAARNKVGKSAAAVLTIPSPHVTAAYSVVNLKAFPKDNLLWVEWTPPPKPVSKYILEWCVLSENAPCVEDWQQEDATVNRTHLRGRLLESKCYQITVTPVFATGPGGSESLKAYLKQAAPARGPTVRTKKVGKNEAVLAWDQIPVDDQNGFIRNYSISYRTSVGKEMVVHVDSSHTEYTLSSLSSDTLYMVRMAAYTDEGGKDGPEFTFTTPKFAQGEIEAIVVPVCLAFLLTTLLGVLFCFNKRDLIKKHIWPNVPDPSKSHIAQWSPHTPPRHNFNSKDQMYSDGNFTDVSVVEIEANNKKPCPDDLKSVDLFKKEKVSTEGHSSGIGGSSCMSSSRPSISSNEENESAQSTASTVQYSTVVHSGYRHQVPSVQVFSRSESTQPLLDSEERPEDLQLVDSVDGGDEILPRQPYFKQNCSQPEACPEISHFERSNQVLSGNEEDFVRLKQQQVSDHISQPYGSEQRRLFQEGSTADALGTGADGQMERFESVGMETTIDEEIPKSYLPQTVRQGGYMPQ
# Test: Immunofluorescence-based binding assay (2): biotin-HN / biotin-HNG binding to F11 cells
# Experimental: A) F11 cells were seeded on 96-well plates coated with poly-L-lysine (7×10^3 cells/well). An indicated amount of biotin-HN or biotin-HNG was added to the cells with or without 10 μM of unlabelled HNG or HNA, followed by a binding assay based on immunofluorescence reaction (2) (left panels). On the other hand, F11 cells were transfected with 0.5 μg of pcDNA3.1/GS-human CNTF-R, pEF1/MycHis-human WSX-1, and 1.0 μg of pCAG-human gp130. At 24 hrs after the transfection, the cells were re-seeded on 96-well plates coated with poly-L-lysine (7×10^3 cells/well). After 36 hrs the re-seeding, an indicated amount of biotin-HN or biotin-HNG was added to the cells with or without 10 μM of unlabeled HNG or HNA, followed by a binding assay based on immunofluorescence reaction (2) (right panels).
# B) F11 cells were transfected with 0.5 μg of pRNA-U1.6/Shuttle vector, pRNA-U6.1/Shuttle-WSX-1 siRNA, pRNA-U6.1/Shuttle-CNTF-R siRNA, both pRNA-U6.1/Shuttle-WSX-1 siRNA and pRNA-U6.1/Shuttle-CNTF-R siRNA (0.5 μg each), pRNA-U6.1/Shuttle-FPR2 siRNA or pRNA-U6.1/Shuttle-LIFR siRNA. The total amount of vectors was adjusted to be 1.0 μg by including a backbone vector. At 24 hrs after the transfection, an indicated amount of biotin-HNG was added with or without unlabeled HNG, followed by a binding assay based on immunofluorescence reaction (2) at 72 hrs after the transfection.
# E) F11 cells on 6-well plate (7×10^4 cells/well) were transfected with 1.0 μg of pRNA-U6.1/Shuttle vector, pRNA-U6.1/Shuttle-Bax siRNA, or both pRNA-U6.1/Shuttle-WSX-1 siRNA and pRNA-U6.1/Shuttle-CNTF-R siRNA (0.5 μg each). At 72 hrs after the transfection, the cells were added with an indicated amount of biotin-HN with or without unlabeled HN or HNA (100 μM) and subjected to an HN-binding assay based on immunofluorescence.
# F11 cells (7×10^4/well in 6-well plates) were replated into 96-well plates (7×10^3 cells/well) at 24 hrs after transfection with indicated amounts of the plasmids encoding mycHis-WSX or V5-CNTF-R, and with PCAG-human gp130 if required. At 36 hrs after transfection, the cells were added with biotin-labeled HN or HNG of indicated concentrations in the presence or the absence of HNG (S14G-HN) or HNA (C8A-HN) of indicated concentrations (Hashimoto et al., 2001 a). After 6 hrs incubation, they were fixed with 4% paraformaldehyde in PBS for 30 min. After washing with PBS, cells were stained with FITC-conjugated avidin (Molecularprobe, Eugene, Oreg., USA). Immunofluorescence intensity was measured (excitation=485 nm, emission=535 nm) with a spectrofluorometer (Wallac1420 ARVOsx Multi Label Counter). Immunohistochemical analysis was done with a laser-scanning, confocal microscope LSM (Carl Zeiss, Germany).
smiles,measurement,setting,value
"CC[C@H](C)[C@H](NC(=O)[C@H](CCC(=O)O)NC(=O)CNC(=O)[C@@H](NC(=O)[C@H](CC(C)C)NC(=O)[C@H](CC(C)C)NC(=O)[C@H](CC(C)C)NC(=O)[C@H](CC(C)C)NC(=O)[C@H](CS)NC(=O)[C@H](CO)NC(=O)[C@H](Cc1ccccc1)NC(=O)CNC(=O)[C@H](CCCNC(=N)N)NC(=O)[C@@H]1CCCN1C(=O)[C@H](C)NC(=O)[C@@H](N)CCSC)[C@@H](C)O)C(=O)N[C@@H](CC(=O)O)C(=O)N[C@@H](CC(C)C)C(=O)N1CCC[C@H]1C(=O)N[C@H](C(=O)N[C@@H](CCCCN)C(=O)N[C@@H](CCCNC(=N)N)C(=O)N[C@@H](CCCNC(=N)N)C(=O)N[C@@H](C)C(=O)O)C(C)C [HNG, S14 G-Humanin] (H-MAPRGFSCLLLLTGEIDLPVKRRA-OH; N-terminus and C-terminus assumed)",concentration of saturation of binding,"biotin-HNG, concentration-dependent binding",10 nM
same,binding to F11 cells,expression of FPR2 or LIFR decreased by siRNA,not be affected
same,inhibition of binding by over-addition of unlabeled peptide,specificity of binding,almost completely inhibit
